Experimental data from patent US9227977B2, “Phosphoinositide 3-kinase inhibitors” (RESPIVERT LTD., priority 2013, dated 2016).

What was measured:
Type in all cases: in vivo, mouse
[1] = test system: LPS-induced airway neutrophilia in mice; experiment: LPS-induced airway neutrophil accumulation in mice; conditions: i-t; for Neutrophil numbers in BALF: mean ± SEM
Method: Non-fasted BALB/c mice (6-8 weeks old) were dosed with vehicle or with test compound by intra-tracheal administration (dose volume 20 μL) at time points T=−2 hr, −8 hr, or −12 hr with respect to the start of LPS treatment. The LPS was prepared in a solution of 0.5 mg/mL and aerosolised using a De Vibliss ultrasonic nebuliser 2000 (7 mL during 30 min exposure). At eight hr after LPS challenge, the trachea was cannulated and bronchoalveolar lavage fluid (BALF) extracted by infusing and then withdrawing PBS (1 mL) into the lungs via the tracheal catheter. This procedure was repeated to give a yield of approximately 2 mL lavage fluid. Total cell numbers in the BALF samples were measured using a haemocytometer. Cytospin smears of the BALF samples were prepared by centrifugation at 1200 rpm for 2 min at RT and stained using a DiffQuik stain system (Dade Behring) for differential cell counts. Cells were counted using oil immersion microscopy. Data are expressed as neutrophil number of cells per mL of BALF (mean±S.E.M).

[2] = test system: poly-I:C-induced cell accumulation in mice airways; experiment: Poly-I:C-induced cell accumulation in mice; conditions: for % inhibition, Macrophages in BALF / % inhibition, Neutrophils in BALF / Cell numbers in BALF, Macrophages / Cell numbers in BALF, Neutrophils: mice, poly I:C, intra-nasal; for Cell numbers in BALF, Macrophages / Cell numbers in BALF, Neutrophils: mean ± SEM
Method: Specific pathogen-free A/J mice (males, 5 weeks old) were dosed with poly (I:C)-LMW (1 mg/mL, 40 μL) (InvivoGen, San Diego, Calif., USA) intranasally twice daily for 3 days under anaesthasia (3% isoflurane). Test substances were dosed intra-nasally (50 μL in 10% DMSO/isotonic saline vehicle) 2 hr before each poly-I:C treatment. At 24 hr after the last poly-I:C challenge, animals were anesthetized, the trachea was cannulated and bronchial alveolar lavage (BAL) was obtained by instilling into and then withdrawing from the lungs, isotonic saline (100 mL/kg). Total cell numbers in the BALF samples were measured using a haemocytometer under a phase-contrast microscope.
The proportions of alveolar macrophages and neutrophils were determined by FACS analysis using anti-mouse MOMA2-FITC (macrophage) or anti-mouse 7/4-FITC (neutrophil). Cells were suspended in PBS and incubated with anti-MOMA2-FITC (2 μg/mL, Catalogue no SM065F, Acris Antibodies GmbH, Herford, Germany) or anti-7/4-FITC (2 μg/mL, Catalogue no CL050F, Acris Antibodies GmbH, Herford, Germany) for 30 min at 30° C., and then counterstained with propidium iodide (2 μg/mL) to allow exclusion of necrotic cells. The cells were washed with PBS, and transferred to FACS tubes. Samples was set in a flow cytometer (ALTRA II; Beckman Coulter Japan, Tokyo, Japan), and a single-parameter FL2 [PMT2] (FITC) histogram with log x-axis was plotted to illustrate relative intensity of FITC, Data files were stored for subsequent analysis using Kaluza analysis software (ver. 1.2) to calculate the proportion of each cell type.

[3] = test system: cigarette smoke-induced cell accumulation and biomarkers in murine BALF; experiment: Cigarette smoke model; conditions: for % inhibition, Macrophages in BAL / % inhibition, Neutrophils in BAL / Cell numbers in BAL, Macrophages / Cell numbers in BAL, Neutrophils: mice, CS, intra-nasal; for Cell numbers in BAL, Macrophages / Cell numbers in BAL, Neutrophils: mean ± SEM; for Inhibition (%) of CXCL1 in BALF / Inhibition (%) of IL-17 in BALF / Inhibition (%) of MCP-1 in BALF / Inhibition (%) of MDA in BALF / Inhibition (%) of Osteopontin in BALF / Inhibition (%) of TNF α in BALF: with respect to tobacco
Method: A/J mice (males, 5 weeks old) were exposed to cigarette smoke (4% cigarette smoke, diluted with compressed air) for 30 min/day for 11 days using a Tobacco Smoke Inhalation Experiment System for small animals (Model SIS-CS; Sibata Scientific Technology, Tokyo, Japan). Test substances were administered once daily for 3 days after the final cigarette smoke exposure (intra-nasal dose comprising 35 μL of solution in 50% DMSO/isotonic saline).
At 12 hr after administration of the last dose, animals were anesthetized, the trachea was cannulated and bronchial alveolar lavage (BAL) was carried out by the instillation into and then withdawal from the lungs, of PBS (100 mL/kg). Total cell numbers in the BALF samples were measured using a haemocytometer under a phase-contrast microscope. The proportions of alveolar macrophages and neutrophils were determined by FACS analysis using anti-mouse MOMA2-FITC (macrophage) or anti-mouse 7/4 (neutrophil).
Cells were suspended in PBS and were incubated with anti-MOMA2-FITC (2 μg/mL, Catalogue no SM065F, Acris Antibodies GmbH, Herford, Germany) or anti-7/4-FITC (2 μg/mL, Catalogue no CL050F, Acris Antibodies GmbH, Herford, Germany) for 30 min at 30° C., and also counterstained with propidium iodide (2 μg/mL) to allow exclusion of necrotic cells. The cells were washed with PBS, and transferred to FACS tubes. Samples was set in a flow cytometer (ALTRA II; Beckman Coulter Japan, Tokyo, Japan), and a single-parameter FL2 [PMT2] (FITC) histogram with log x-axis was plotted to illustrate relative intensity of FITC.
Data files are stored for subsequent analysis using Kaluza analysis software (ver. 1.2) to calculate the proportion of each cell type. The levels of CXCL1(KC), MCP1, TNFα, IL-17 or osteopontin in BALF were determined using Quentikine® mouse KC, MCP1, TNFα, IL-17 or osteopontin ELISA kit (R&D systems, Inc., Minneapolis, Minn., USA). The presence of malondialdehyde was measured using OxiSelect® TBARS Assay Kit (MDA Quantitation; Cell Biolabs Inc, San Diego, Calif., USA).

## COCCOCCOCC#Cc1cccc2nc(Cn3nc(-c4cc(O)cc(F)c4)c4c(N)ncnc43)n(Cc3ccccc3C(F)(F)F)c(=O)c12 [Compound (I), 2-((4-Amino-3-(3-fluoro-5-hydroxyphenyl)-1H-pyrazolo[3,4-d]pyrimidin-1-yl)methyl)-5-(3-(2-(2-methoxyethoxy)ethoxy)prop-1-yn-1-yl)-3-(2-(trifluoromethyl)benzyl)quinazolin-4(3H)-one]
[1]; 0.05 mg/mL, pre-dose 2 hr
  % inhibition of neutrophil numbers in BALF: 19%
  Neutrophil numbers in BALF: 13.8 ± 2.5 x10^5/mL
[1]; 0.2 mg/mL, pre-dose 2 hr
  % inhibition of neutrophil numbers in BALF: 53%
  Neutrophil numbers in BALF: 8.0 ± 1.4 x10^5/mL
[1]; 0.2 mg/mL, pre-dose 8 hr
  % inhibition of neutrophil numbers in BALF: 45%
  Neutrophil numbers in BALF: 9.4 ± 2.0 x10^5/mL
[1]; 0.2 mg/mL, pre-dose 12 h
  % inhibition of neutrophil numbers in BALF: 23%
  Neutrophil numbers in BALF: 13.1 ± 2.5 x10^5/mL
[1]; 1.0 mg/mL, pre-dose 2 hr
  % inhibition of neutrophil numbers in BALF: 68%
  Neutrophil numbers in BALF: 5.5 ± 0.9 x10^5/mL
[2]; direct comparison
  potency versus compound A on poly-I:C-induced cell accumulation (in words): significantly greater potency than compound A
[2]; 0.002 mg/mL
  % inhibition, Macrophages in BALF: 49%
  % inhibition, Neutrophils in BALF: 43%
  Cell numbers in BALF, Macrophages: 11.5 ± 0.2 x10^4/mL
  Cell numbers in BALF, Neutrophils: 7.3 ± 0.3 x10^4/mL
[2]; 0.02 mg/mL
  % inhibition, Macrophages in BALF: 69%
  % inhibition, Neutrophils in BALF: 65%
  Cell numbers in BALF, Macrophages: 8.3 ± 0.3 x10^4/mL
  Cell numbers in BALF, Neutrophils: 5.0 ± 0.2 x10^4/mL
[2]; 0.2 mg/mL
  % inhibition, Macrophages in BALF: 79%
  % inhibition, Neutrophils in BALF: 77%
  Cell numbers in BALF, Macrophages: 6.8 ± 0.3 x10^4/mL
  Cell numbers in BALF, Neutrophils: 3.8 ± 0.2 x10^4/mL
[3]; contemporaneous study
  potency versus compound A on cigarette-smoke induced cell accumulation in murine BALF (in words): more potent inhibitor
[3]; 0.02 mg/mL
  % inhibition, Macrophages in BAL: 32%
  % inhibition, Neutrophils in BAL: 26%
  Cell numbers in BAL, Macrophages: 13.6 ± 0.2 x10^4/mL
  Cell numbers in BAL, Neutrophils: 8.6 ± 0.2 x10^4/mL
[3]; 0.2 mg/mL
  % inhibition, Macrophages in BAL: 63%
  % inhibition, Neutrophils in BAL: 54%
  Cell numbers in BAL, Macrophages: 9.5 ± 0.2 x10^4/mL
  Cell numbers in BAL, Neutrophils: 6.0 ± 0.1 x10^4/mL
[3]; 2 mg/mL
  % inhibition, Macrophages in BAL: 79%
  % inhibition, Neutrophils in BAL: 68%
  Cell numbers in BAL, Macrophages: 7.4 ± 0.3 x10^4/mL
  Cell numbers in BAL, Neutrophils: 4.6 ± 0.1 x10^4/mL
[3]; Compound (I) 0.02 mg/mL
  Inhibition (%) of CXCL1 in BALF: 32%
  Inhibition (%) of IL-17 in BALF: 27%
  Inhibition (%) of MCP-1 in BALF: 28%
  Inhibition (%) of MDA in BALF: 25%
  Inhibition (%) of Osteopontin in BALF: 22%
  Inhibition (%) of TNF α in BALF: 22%
[3]; Compound (I) 0.2 mg/mL
  Inhibition (%) of CXCL1 in BALF: 52%
  Inhibition (%) of IL-17 in BALF: 41%
  Inhibition (%) of MCP-1 in BALF: 45%
  Inhibition (%) of MDA in BALF: 42%
  Inhibition (%) of Osteopontin in BALF: 44%
  Inhibition (%) of TNF α in BALF: 38%
[3]; Compound (I) 2 mg/mL
  Inhibition (%) of CXCL1 in BALF: 71%
  Inhibition (%) of IL-17 in BALF: 60%
  Inhibition (%) of MCP-1 in BALF: 78%
  Inhibition (%) of MDA in BALF: 64%
  Inhibition (%) of Osteopontin in BALF: 63%
  Inhibition (%) of TNF α in BALF: 62%
